{
  "source": "patent US20120302636A1",
  "about": "“METHOD OF TREATING A DISORDER ASSOCIATED WITH MTP” (priority 2009, published 2012)",
  "key": {"serum lipid levels [1]": {"test_system": "serum lipid levels", "experiment": "Example 7: serum lipid levels", "assay_type": "in vivo, human", "experimental": "Postprandial levels of lipid parameters after administration of the compound of formula (I) were evaluated using the change from preceding timepoint. […] Intraday changes and changes from pretreatment baseline also indicate that the absorption of TG, VLDL-TG, and chylomicron-TG were delayed compared to placebo. This delayed absorption is consistent with a previous pharmacology study in healthy male Japanese subjects. The postprandial results were interpreted with caution as the delay in absorption can impact the calculation regarding the magnitude of the postprandial change in triglycerides. However, the suppression of the expected increases in postprandial TG, VLDL-TG, and chylomicron-TG, which is indicative of MTP inhibition, clearly supports the mechanism of action of the compound of formula (I). The VLDL-TG changes observed in this study are consistent with previous studies (Examples 2 and 6) where the compound of formula (I) was administered for up to 14 days in healthy or hypertriglyceridemic Caucasian and Japanese male subjects. In general, the compound of formula (I) levels were also low or non-quantifiable in these studies. […] Therefore, the compound of formula (I) is not believed to directly affect the liver."}, "[2]": {"experiment": "Example 5: fixed-dose or escalating doses, safety", "assay_type": "in vivo, human", "experimental": "Fifty-two Japanese patients with hyperlipidemia (LDL-C between 140 and 220 mg/dL; TG≦400 mg/dL) participated in the study. […] One group received a fixed dose of 2 mg per tablet through the entire study. The other group received escalating doses of 0.5 mg (weeks 1-4), 1 mg (weeks 5-8), and 2 mg (weeks 9-12). For the efficacy analysis, 50 subjects were observed (25 in the fixed-dose group and 25 in the dose escalation group).\nThe objective of this study was preliminary evaluation of the efficacy (based on serum lipid levels), safety, and pharmacokinetics of the compound of formula (I) administered orally twice daily after breakfast and supper for 12 weeks as a fixed dose (4 mg/day) or escalating dose (1 mg/day, 2 mg/day and 4 mg/day) regimen in patients with hyperlipidemia."}, "serum lipid levels [3]": {"test_system": "serum lipid levels", "experiment": "Example 1: serum lipid levels", "assay_type": "in vivo, human", "experimental": "In this study, lipids related to lipoprotein metabolism were determined as serum lipid test items. In the active group, postprandial elevations for RLP-C, TG, LDL-TG, HDL-TG, CM-TG, and ApoB48 (reference data) were inhibited, while LDL-C, HDL-C, TC, and ApoB values decreased. The manifestation of those effects required 3 to 7 days. […] This effect is attributable to the inhibition of diet-derived lipid absorption based on the MTP inhibitory activity of the compound of formula (I) in the small intestine."}, "[4]": {"experiment": "Example 1: repeated oral dose study of capsules, safety", "procedure": "The subjects were divided into two dosing groups, and within each dosing group, the subjects were divided as follows: 6 subjects received the compound of formula (1) and 3 subjects received placebo. […] Subjects were in a fed condition prior to administration of each capsule.\nEach active capsule contained a filling solution and a gelatin solution. The filling solution comprised the compound of formula (I) (5 mg), propylene glycol esters of fatty acids, and dehydrated ethanol. The gelatin solution comprised purified water, gelatin, and anhydrized liquid sorbitol. The filling solution and gelatin solution were prepared individually and combined to form a soft capsule. The placebo capsules were prepared in a similar manner except that the filling solution contained only propylene glycol esters of fatty acids and dehydrated ethanol."}},
  "data": [
    {"smiles": "CCOC(=O)C(COC(=O)Cc1ccc(NC(=O)c2ccccc2-c2ccc(C(F)(F)F)cc2)c(C(=O)N(C)C)c1)(C(=O)OCC)c1ccccc1", "note": "[compound of formula (I), diethyl 2-((2-(3-(dimethylcarbamoyl)-4-(4′-(trifiuoromethyl)biphenyl-2-ylcarboxamido)phenyl)acetoxy)methyl)-2-phenyl malonate]", "values": [
      {"measurement": "postprandial estimates for TG, VLDL-TG, and chylomicron-TG", "setting": "serum lipid levels [1]; following breakfast and dinner", "value": "substantially lower when compared with placebo"},
      {"measurement": "decrease in HDL-C levels", "setting": "serum lipid levels [1]; in vivo", "value": "not as pronounced as LDL-C, nor was it statistically significant"},
      {"measurement": "pretreatment baseline adjusted values of TC, LDL-C, LDL-TG, ApoB, and phospholipids", "setting": "serum lipid levels [1]; in vivo", "value": "significant reduction"},
      {"measurement": "events of gastrointestinal disorders", "setting": "[2]; dose escalation group", "value": 14},
      {"measurement": "events of infections and infestations", "setting": "[2]; dose escalation group", "value": 6},
      {"measurement": "events of laboratory test", "setting": "[2]; dose escalation group", "value": 11},
      {"measurement": "incidence of gastrointestinal disorders (SOC)", "setting": "[2]; dose escalation group", "value": 34.6, "unit": "%"},
      {"measurement": "incidence of infections and infestations (SOC)", "setting": "[2]; dose escalation group", "value": 19.2, "unit": "%"},
      {"measurement": "incidence of laboratory test (SOC)", "setting": "[2]; dose escalation group", "value": 23.1, "unit": "%"},
      {"measurement": "incidence of moderate adverse events", "setting": "[2]; dose escalation group", "value": 15.4, "unit": "%"},
      {"measurement": "number of adverse events", "setting": "[2]; dose escalation group", "value": 37},
      {"measurement": "subjects with adverse events (incidence)", "setting": "[2]; dose escalation group", "value": 65.4, "unit": "%"},
      {"measurement": "subjects with moderate diarrhea", "setting": "[2]; dose escalation group", "value": "three"},
      {"measurement": "incidence of gastrointestinal disorders", "setting": "[2]; dose escalation group, Weeks 9 to 12 (4 mg/day)", "value": 20.0, "unit": "%"},
      {"measurement": "events of gastrointestinal disorders", "setting": "[2]; fixed-dose group", "value": 25},
      {"measurement": "events of infections and infestations", "setting": "[2]; fixed-dose group", "value": "four"},
      {"measurement": "events of laboratory test", "setting": "[2]; fixed-dose group", "value": "nine"},
      {"measurement": "incidence of gastrointestinal disorders (SOC)", "setting": "[2]; fixed-dose group", "value": 50.0, "unit": "%"},
      {"measurement": "incidence of infections and infestations (SOC)", "setting": "[2]; fixed-dose group", "value": 15.4, "unit": "%"},
      {"measurement": "incidence of laboratory test (SOC)", "setting": "[2]; fixed-dose group", "value": 23.1, "unit": "%"},
      {"measurement": "incidence of moderate adverse events", "setting": "[2]; fixed-dose group", "value": 15.4, "unit": "%"},
      {"measurement": "number of adverse events", "setting": "[2]; fixed-dose group", "value": 45},
      {"measurement": "subjects with adverse events (incidence)", "setting": "[2]; fixed-dose group", "value": 65.4, "unit": "%"},
      {"measurement": "subjects with moderate diarrhea", "setting": "[2]; fixed-dose group", "value": "four"},
      {"measurement": "incidence of gastrointestinal disorders", "setting": "[2]; fixed-dose group, Weeks 1 to 4 (4 mg/day)", "value": 46.2, "unit": "%"},
      {"measurement": "systolic and diastolic blood pressure, pulse rate, body temperature, body weight, ultrasonography", "setting": "[2]; in vivo", "value": "No clinically relevant abnormal changes"},
      {"measurement": "death or serious adverse events", "setting": "[2]; tablets BID, 12 weeks", "value": "No death or other serious adverse events occurred"},
      {"measurement": "LDL-C, HDL-C, TC, and ApoB values", "setting": "serum lipid levels [3]; active group", "value": "decreased"},
      {"measurement": "postprandial elevations for RLP-C, TG, LDL-TG, HDL-TG, CM-TG, and ApoB48", "setting": "serum lipid levels [3]; active group", "value": "inhibited"},
      {"measurement": "increase in postprandial values for RLP-C, TG, LDL-TG, HDL-TG, and CM-TG", "setting": "serum lipid levels [3]; after the first dose on Day 1", "value": "inhibited an increase"},
      {"measurement": "number of adverse events", "setting": "[4]; 5 mg group", "value": 12},
      {"measurement": "subjects with adverse events (incidence)", "setting": "[4]; 5 mg group", "value": 83, "unit": "%"},
      {"measurement": "vitamins A and E", "setting": "[4]; 15 mg BID group", "value": "Decreased"},
      {"measurement": "number of adverse events", "setting": "[4]; 15 mg group", "value": 32},
      {"measurement": "subjects with adverse events (incidence)", "setting": "[4]; 15 mg group", "value": 100, "unit": "%"},
      {"measurement": "subjects with diarrhea", "setting": "[4]; 15 mg group, of 6 subjects", "value": 6, "unit": "subjects"},
      {"measurement": "death or serious adverse events", "setting": "[4]; 5 or 15 mg BID after meals, 14 days, capsules", "value": "neither death nor serious adverse events were reported"},
      {"measurement": "incidence of ALT increased", "setting": "[4]; active group", "value": 17, "unit": "%"},
      {"measurement": "incidence of abdominal discomfort", "setting": "[4]; active group", "value": 25, "unit": "%"},
      {"measurement": "incidence of anorexia", "setting": "[4]; active group", "value": 42, "unit": "%"},
      {"measurement": "incidence of diarrhea", "setting": "[4]; active group", "value": 67, "unit": "%"},
      {"measurement": "incidence of gastrointestinal disorders (SOC)", "setting": "[4]; active group", "value": 75, "unit": "%"},
      {"measurement": "incidence of investigations (SOC)", "setting": "[4]; active group", "value": 33, "unit": "%"},
      {"measurement": "incidence of metabolism and nutrition disorders (SOC)", "setting": "[4]; active group", "value": 42, "unit": "%"},
      {"measurement": "incidence of moderate abdominal discomfort", "setting": "[4]; active group", "value": 8, "unit": "%"},
      {"measurement": "incidence of moderate diarrhea", "setting": "[4]; active group", "value": 58, "unit": "%"},
      {"measurement": "incidence of moderate feeling queasy", "setting": "[4]; active group", "value": 8, "unit": "%"},
      {"measurement": "incidence of moderate stomach discomfort", "setting": "[4]; active group", "value": 8, "unit": "%"},
      {"measurement": "incidence of stomach discomfort", "setting": "[4]; active group", "value": 58, "unit": "%"},
      {"measurement": "subjects with adverse events (incidence)", "setting": "[4]; active group (5 and 15 mg BID), 12 subjects", "value": 92, "unit": "%"},
      {"measurement": "number of adverse events", "setting": "[4]; active group, 12 subjects", "value": 44},
      {"measurement": "tolerable dosage", "setting": "[4]; long-term treatment in outpatients", "value": 5, "unit": "mg BID"},
      {"measurement": "doses at which diarrhea occurred", "setting": "[4]; repeated BID administration", "value": "≥ 5", "unit": "mg"}
    ]}
  ]
}
